This is an account of results in patent US20260216368A1, “BIS-ESTER AND AMIDE CATIONIC LIPIDS” (SANOFI PASTEUR INC., priority 2022, published 2026).

A short description of series [1]: DLS size and polydispersity of hEPO mRNA lipid nanoparticles. In kind it is physicochemical. Conditions: hEPO mRNA LNP, Cationic Lipid:DMG-PEG2000:Cholesterol:DOPE=40:1.5:28.5:30, N/P ratio 4, Process A. The method, then:
The lipid nanoparticles in the examples of the present invention were formulated using Process A of WO 2018/089801 (see, e.g., Example 1 and FIG. 1 of WO 2018/089801). Process A (“A”) relates to a conventional method of encapsulating mRNA by mixing mRNA with a mixture of lipids, without first pre-forming the lipids into lipid nanoparticles. In an exemplary process, an ethanol lipid solution and an aqueous buffered solution of mRNA were prepared separately. A solution of mixture of lipids (cationic lipid, helper lipids, zwitterionic lipids, PEG lipids etc.) was prepared by dissolving lipids in ethanol. The mRNA solution was prepared by dissolving the mRNA in citrate buffer. Then, these two solutions were mixed using a pump system. In some instances, the two solutions were mixed using a gear pump system. In certain embodiments, the two solutions were mixing using a ‘T’ junction (or “Y” junction). The mixture was then purified by diafiltration with a TFF process. The resultant formulation concentrated and stored at 2-8° C. until further use.
(§1) Lipid nanoparticle formulations of Table 1 were prepared by Process A. More specifically, an ethanolic solution of a mixture of lipids including DMG-PEG-2000, cationic lipid, cholesterol, and phosphatidylethanolamine (DOPE) in a ratio of 1.5:40:28.5:30 were combined with an aqueous buffered solution (1 mM Citrate and 150 mM NaCl) of target mRNA at an acidic pH (4.5) under controlled conditions to yield a dispersion of uniform lipid nanoparticles (LNPs). Upon ultrafiltration and diafiltration into the final buffer, the resulting nanoparticle dispersions were diluted to required concentration using the final buffer (10% Trehalose), sterile filtered and stored frozen at −80° C. until use.
All of the lipid nanoparticle formulations comprised hEPO mRNA and the different lipids in following mol % ratios: Cationic Lipid: DMG-PEG2000; Cholesterol:DOPE=40:1.5:28.5:30.
DLS measurements were performed using a Malvern Instruments Zetasizer with a backscattering detector angle of 173° and a 4-mW, 633-nm He—Ne laser (Worcestershire, UK). The samples were analyzed by diluting in 10% Trehalose and measuring the size and Poly dispersity Index (PDI) in an optical grade polystyrene cuvette.
The following lipid nanoparticles were formulated according to Example 51.
as §1, with “Table 3” for “Table 1”

Series [2] is described as follows: RiboGreen assay, % encapsulation of mRNA in lipid nanoparticles. In kind it is physicochemical. Conditions: hEPO mRNA LNP, Cationic Lipid:DMG-PEG2000:Cholesterol:DOPE=40:1.5:28.5:30, N/P ratio 4, Process A. An excerpt:
In embodiments, the lipid nanoparticle encapsulates a nucleic acid, optionally an mRNA encoding a peptide or protein. In embodiments, the peptide is an antigen. In embodiments, the lipid nanoparticle encapsulates an mRNA encoding a peptide or protein. As used herein, the phrase “encapsulation percentage” refers to the fraction of therapeutic agent (e.g. mRNA) that is effectively encapsulated within a liposomal-based vehicle (e.g. a lipid nanoparticle) relative to the initial fraction of therapeutic agent present in the lipid phase. In embodiments, the lipid nanoparticles have an encapsulation percentage for mRNA of at least 50%. In embodiments, the lipid nanoparticles have an encapsulation percentage for mRNA of at least 55%. In embodiments, the lipid nanoparticles have an encapsulation percentage for mRNA of at least 60%. In embodiments, the lipid nanoparticles have an encapsulation percentage for mRNA of at least 65%. In embodiments, the lipid nanoparticles have an encapsulation percentage for mRNA of at least 70%. In embodiments, the lipid nanoparticles have an encapsulation percentage for mRNA of at least 75%. In embodiments, the lipid nanoparticles have an encapsulation percentage for mRNA of at least 80%. In embodiments, the lipid nanoparticles have an encapsulation percentage for mRNA of at least 85%. In embodiments, the lipid nanoparticles have an encapsulation percentage for mRNA of at least 90%. In embodiments, the lipid nanoparticles have an encapsulation percentage for mRNA of at least 95%. In embodiments, the encapsulation percentage is calculated by performing the Ribogreen assay (Invitrogen) with and without the presence of 0.1% Triton-X 100.
The RiboGreen Assay is a fluorescence-based method for the determination of mRNA concentration (Total and Free) and % encapsulation using Quant-iT™ RiboGreen® RNA reagent in mRNA containing lipid nanoparticles.
• To each of the standards (Blank, mRNA-1, mRNA-2. mRNA-3, mRNA-4, mRNA-5) and Samples (free mRNA and total mRNA), add 1.0 mL of 200-fold Ribogreen Reagent Solution and gently mix by inversion. This is a 2× Dilution. • Add 200 μL of each standard and sample in triplicate using the reverse pipetting technique in a 96-well Costar Black with Clear Background Plate. Ensure no bubbles are present in the plate before the fluorescence reading. • Read the fluorescence signal using the below instrument parameters: • Read Type: Fluorescence, Bottom Read • Excitation: 485 nm; Cut-off: 515 nm; Emission: 530 nm • Plate Type: 96-well Costar Black with Clear Background
The average fluorescence from each calibration standard is plotted against the concentration to generate a linear calibration curve using the MS Excel software. The coefficient of determination (R^2) of calibration curve must be R^2>0.99.
[formula] • Where, • Y=average fluorescence value • m: slope • x: concentration (pg/mL) • c: y-intercept • Using the linear equation, calculate the concentration of free and total mRNA concentration in the test sample by replacing the y value in the equation with the average fluorescence value of each respective sample • Once the concentration is determined, the actual concentration in the sample can be back-calculated by multiplying the concentration in the test sample with the dilution factor (DF) as follows:
[formula] • Concentration of encapsulated mRNA can be determined by subtracting the concentration of free mRNA from the total mRNA. • % Encapsulation can then be calculated by taking the ratio of encapsulated mRNA over total mRNA and multiplying the result with 100.

Series [3] relates to Human erythropoietin (hEPO) levels in sera. Put plainly: Delivery of hEPO mRNA by intramuscular administration of lipid nanoparticles; serum hEPO by ELISA. Particulars: for hEPO 6 Hr (ng/mL) Mean / hEPO 24 Hr (ng/mL) Mean: serum, 0.1 μg/animal hEPO mRNA LNP, n=4; for hEPO 6 Hr (ng/mL) Mean: 6 hours post dose; for in vivo hEPO protein production (FIG. 51): intramuscular delivery of hEPO mRNA using lipid nanoparticles comprising the compound, result in words; for hEPO 24 Hr (ng/mL) Mean: 24 hours post dose. In kind it is in vivo, Mouse. The method, then:
WO2022/099003 A1 describes an in vivo assay for intramuscular administration (e.g. on page 46, paragraph [00206]). Further details of the intramuscular experiment performed in this application are provided below.
Treatment Regimen: On Day 1, animals from Groups 1-8 were dosed via intramuscular injection while under light isoflurane anesthesia according to the study design table above. Animals in Groups 2-8 were injected with EPO in the right leg only. Group 1 animals received saline control.
Interim Sample Collections: Interim whole blood (~50 μL) was collected by tail snip or saphenous vein at 6 hours post dose administration (±5%). Blood samples were collected into serum separator tubes, allowed to clot at room temperature for at least 10 minutes, centrifuged at ambient temperature at minimum 1000 g for 10 minutes and the serum was extracted. All serum samples were stored at nominally −70° C. until analysis hEPO by the Testing Facility. The results of the EPO analysis were included in the Data Submission.
Terminal Blood Collections: Whole blood was collected via cardiac puncture into serum separator tube, allowed to clot at room temperature for at least 10 minutes, centrifuged at ambient temperature at minimum 1000 g for 10 minutes and the serum was extracted. Serum samples were stored at nominally −70° C. until analyzed for hEPO by the Test Facility.
ELISA Assay: Human erythropoietin (hEPO) levels in sera samples were determined by ELISA kit (R&D systems, Cat #DEP-00) according to the manufactory instruction and the results were included in the Data Submission. The “shaker” protocol was used. The serum samples were diluted between 1:40 and 1:100.
The ability of the further exemplary lipid nanoparticles in Example 54 to deliver hEPO mRNA by intramuscular administration was tested in accordance with the experimental protocol set out in Example 52.
On the technique in general: In an ELISA, binding on a coated surface is turned into a signal by an enzyme label.

Where [4] appears, read: single IM injection, female BALB/cJ mice.

`CCCCCCCCCCC(O)CN(CCCOC(=O)[C@H](CCc1ccc(O)cc1)NC(=O)CCCN(CC(O)CCCCCCCCCC)CC(O)CCCCCCCCCC)CC(O)CCCCCCCCCC` (stereo partly drawn) [Compound C, 3-[bis(2-hydroxydodecyl)amino]propyl (S)-2-{4-[bis(2-hydroxydodecyl)amino]butyrylamino}-4-(p-hydroxyphenyl)butyrate]: in series [1] (Table 3, further LNPs), the PDI was 0.093 and the “Size (nm)” value is reported as 108 nm. In addition, the “Encapsulation Percentage (%)” value in series [2] (Table 3, further LNPs) is reported as 82%. In series [3] (fourth occasion, IM, mice), the “hEPO 6 Hr (ng/mL) Mean” value was 37.2 ng/mL.

Consider `CCCCCCCCC(O)CN(CCCNC(=O)CC(C)(O)CC(=O)NCCCN(CC(O)CCCCCCCC)CC(O)CCCCCCCC)CC(O)CCCCCCCC` (stereo not drawn) [LXXXVIII], for which, in series [1] (Table 3, further LNPs), the PDI came out at 0.134 and the “Size (nm)” value is listed as 100 nm. Also, in series [2] (Table 3, further LNPs), the “Encapsulation Percentage (%)” value stood at 84%. The “hEPO 6 Hr (ng/mL) Mean” value in series [3] (first occasion, IM, mice) was determined as 51.7 ng/mL.

With `CCCCCCCCC(O)CN(CCCOC(=O)CN(C)CC(=O)OCCCN(CC(O)CCCCCCCC)CC(O)CCCCCCCC)CC(O)CCCCCCCC` (stereo not drawn) [XII], in series [1] (Table 1), the PDI is given as 0.091 and the “Size (nm)” value was 110 nm. Further, the “Encapsulation Percentage (%)” value in series [2] (Table 1) turned out to be 46%. Moreover, the “in vivo hEPO protein production (FIG. 51)” value in series [3] was “high levels of in vivo hEPO protein production”. Moreover, in series [3] (setting [4]), the “hEPO 6 Hr (ng/mL) Mean” value was determined as 35.0 ng/mL and the “hEPO 24 Hr (ng/mL) Mean” value is 15.1 ng/mL.

On to `CCCCCCCCCCC(O)CN(CCCOC(=O)[C@H](Cc1c[nH]c2ccccc12)NC(=O)CCCN(CC(O)CCCCCCCCCC)CC(O)CCCCCCCCCC)CC(O)CCCCCCCCCC` (stereo partly drawn) [Compound CI, 3-(bis(2-hydroxydodecyl)amino)propyl (4-(bis(2-hydroxydodecyl)amino)butanoyl)-L-tryptophanate], for which, in series [1] (Table 3, further LNPs), the PDI amounted to 0.155 and the “Size (nm)” value is 135 nm. Also, the “Encapsulation Percentage (%)” value in series [2] (Table 3, further LNPs) amounted to 85%. The “hEPO 6 Hr (ng/mL) Mean” value in series [3] (second occasion, IM, mice) turned out to be 40.5 ng/mL.

In the case of `CCCCCCCCCCC(O)CN(CCCOC(=O)[C@H](Cc1ccccc1)NC(=O)CCCN(CC(O)CCCCCCCCCC)CC(O)CCCCCCCCCC)CC(O)CCCCCCCCCC` (stereo partly drawn) [Compound XCV, 3-[bis(2-hydroxydodecyl)amino]propyl (S)-2-{4-[bis(2-hydroxydodecyl)amino]butyrylamino}-3-phenylpropionate], in series [1] (Table 3, further LNPs), the PDI is listed as 0.191 and the “Size (nm)” value stood at 94 nm. The “Encapsulation Percentage (%)” value in series [2] (Table 3, further LNPs) amounted to 66%. The “hEPO 6 Hr (ng/mL) Mean” value in series [3] (fourth occasion, IM, mice) is on record as 22.4 ng/mL.

For `CCCCCCCCCCC(O)CN(CCCOC(=O)CCC(C)C(=O)OCCCN(CC(O)CCCCCCCCCC)CC(O)CCCCCCCCCC)CC(O)CCCCCCCCCC` (stereo not drawn) [XXXII], in series [1] (Table 1), the PDI stood at 0.124 and the “Size (nm)” value is 106 nm. In addition, the “Encapsulation Percentage (%)” value in series [2] (Table 1) is recorded as 78%. Moreover, the “in vivo hEPO protein production (FIG. 51)” value in series [3] is “high levels of in vivo hEPO protein production”. For the same molecule, in series [3] (setting [4]), the “hEPO 6 Hr (ng/mL) Mean” value turned out to be 17.0 ng/mL and the “hEPO 24 Hr (ng/mL) Mean” value came to 10.3 ng/mL.

As to `CCCCCCCCCCC(O)CN(CCCNC(=O)CC(C)(C)CC(=O)NCCCN(CC(O)CCCCCCCCCC)CC(O)CCCCCCCCCC)CC(O)CCCCCCCCCC` (stereo not drawn) [Compound LXXXVII, N,N′-bis({3-[bis(2-hydroxydodecyl)amino]propyl})-3,3-dimethylpentanediamide], in series [1] (Table 3, further LNPs), the PDI stood at 0.111 and the “Size (nm)” value is on record as 123 nm. The “Encapsulation Percentage (%)” value in series [2] (Table 3, further LNPs) is given as 88%. The “hEPO 6 Hr (ng/mL) Mean” value in series [3] (first occasion, IM, mice) came out at 29.1 ng/mL.

As to `CCCCCCCCCCC(O)CN(CCCOC(=O)[C@H](Cc1ccc(O)cc1)NC(=O)CCCN(CC(O)CCCCCCCCCC)CC(O)CCCCCCCCCC)CC(O)CCCCCCCCCC` (stereo partly drawn) [Compound XCIX, 3-(bis(2-hydroxydodecyl)amino)propyl (4-(bis(2-hydroxydodecyl)amino)butanoyl)-L-tyrosinate], the “hEPO 6 Hr (ng/mL) Mean” value in series [3] (third occasion, IM, mice) was 38.1 ng/mL.
